Test results reported in patent US20130101666A1, “LIPOSOME INCLUDING ELASTIN-LIKE POLYPEPTIDE CONJUGATED TO MOIETY CONTAINING HYDROPHOBIC GROUP, CHEMOSENSITIZER AND ANTICANCER AGENT AND USE THEREOF” (SAMSUNG ELECTRONICS CO., LTD., priority 2011, published 2013).

Assays:
[1] = Amounts of drugs entrapped in liposomes by loading method (HPLC); format: physicochemical
Experimental: Two types of drugs, i.e., doxorubicin and verapamil, were loaded in the liposome. The loading process was performed using an ammonium sulfate gradient method (J. Control. Release 2009, 139, 73-80) or a pH-gradient method (Biochimica et Biophysica Acta 1985, 816, 294-302). In the loading process by the ammonium sulfate gradient method, a drug was added to the liposome solution formed of liposomes with 250 mM or 150 mM of ammonium sulfate inside and 25 mM of Tris-HCl buffer outside. The loading process was performed at a temperature of 37° C. for 60 minutes. In the loading process by the pH-gradient method, a drug was added to the liposome solution formed of liposomes with 300 mM of citrate buffer (pH 4.0) inside and 20 mM of HEPES buffer (150 mM NaCl, pH 7.4) outside. The loading process was performed at a temperature of 37° C. for 60 minutes.
The prepared liposome solution was passed through PD-10 (GE Healthcare) desalting column by flowing physiological saline therethrough to remove unentrapped drug.
Doxorubicin and verapamil entrapped in the liposomes were analyzed by high performance liquid chromatography (HPLC).
The liposomes co-encapsulating certain amounts of doxorubicin and verapamil were diluted and dissolved in dimethylsulfoxide (DMSO) and then introduced into a HPLC column. The analysis by HPLC was performed by eluting the drugs using KH2PO4/MeCN as an eluent and measuring absorbance thereof at 280 nm.
In the loading process, initial concentrations of doxorubicin and verapamil were 500 μg and 250 μg, respectively, based on 1 mL of the liposome solution.

[2] = tested on: NCI/ADR-RES cells; test: cells; settings: Homo sapiens, 10 min, read-out: cell viability
Experimental: (§1) In addition, cytotoxicity of the liposome with doxorubicin and verapamil entrapped therein against NCI/ADR-RES cells was confirmed. […] 50% based on the weight of doxorubicin of verapamil, was contained in the liposome. […] In this experiment, NCI/ADR-RES cells were incubated in each of a MEM containing free doxorubicin and a MEM containing the liposome with doxorubicin and verapamil entrapped therein, 10 volume % FBS, and 1 wt % PS at 37° C. for 48 hours. In particular, NCI/ADR-RES cells (5.0×10^4 cells) were cultured in MEM containing 10% (v/v) FBS and 1% penicillin/streptomycin in a well of the 24-well plate for 48 hours. The cultured NCI/ADR-RES cells were treated with the liposomes containing doxorubicin and verapamil at a variety of concentrations, immediately placed in a thermoshaker, and then incubated at 37° C. for 10 minutes. […] Thereafter, the NCI/ADR-RES cells were cultured at 37° C. for 48 hours, and the viability of the NCI/ADR-RES cells was measured using CCK-8 assay kit (Dojindo) by WST (water soluble tetrazolium) assay.
(§2) NCI/ADR-RES cells (5.0×10^4 cells) were cultured in MEM containing 10% (v/v) FBS and 1% penicillin/streptomycin in a well of the 24-well plate for 48 hours. […] Thereafter, the NCI/ADR-RES cells were cultured at 37° C. for 46 hours, and the viability of the NCI/ADR-RES cells was measured using CCK-8 assay kit (Dojindo) by WST assay. […]

[3] = tested on: NCI/ADR-RES cells; test: Viability of NCI/ADR-RES cells cultured in the presence of doxorubicin (WST assay); format: cell-based; settings: Homo sapiens, 20 ug/mL doxorubicin, 37° C. for 2 hours, fresh media, 2 days, FIG. 1, read-out: NCI/ADR-RES cells survived (viability)
Experimental: Tumor cells having a resistance against doxorubicin, i.e., NCI/ADR-RES cells, were cultured in the presence of doxorubicin and the viability of the cells was evaluated. NCI/ADR-RES cells are tumor cells derived from OVCAR-8.
NCI/ADR-RES cells were incubated in minimum essential media (MEM) containing various concentrations of doxorubicin (0.1, 0.5, 1.0, 2.5, 5.0, 10 or 20 ug/mL), 10 volume % fetal bovine serum (FBS), and 1 wt % penicillin-streptomycin (PS) at 37° C. for 2 hours. After the MEM was replaced with fresh media, the cells were incubated at 37° C. for 2 days. The viability of the cells was evaluated by water soluble tetrazolium (WST) assay. FIG. 1 is a graph showing the viability of NCI/ADR-RES cells when being cultured in the presence of doxorubicin.

[4] = tested on: NCI/ADR-RES cells; settings: 45° C. for 10 minutes; 10 ug doxorubicin/mL (liposome: +5 ug verapamil/mL); FIG. 7A/7B
Experimental: as §1, §2

[5] = ammonium sulfate gradient method, 150 mM ammonium sulfate (inside), 25 mM Tris HCl buffer (outside), initial doxorubicin 500 μg, verapamil 250 μg per 1 mL

amount of entrapped doxorubicin [1, 5]	amount of entrapped doxorubicin ([1]; ammonium sulfate gradient method, 250 mM ammonium sulfate (inside), 25 mM Tris HCl buffer (outside), initial doxorubicin 500 μg, verapamil 250 μg per 1 mL)	amount of entrapped doxorubicin ([1]; pH-gradient method, 300 mM citrate buffer (pH 4.0) (inside), 20 mM HEPES buffer (150 mM NaCl, pH 7.4) (outside))	Structure (SMILES)	amount of entrapped verapamil [1, 5]	viability at 20 µg/mL [2]	viability at 20 µg/mL [3]	cell viability [4]
–	–	–	COc1ccc(CCN(C)CCCC(C#N)(c2ccc(OC)c(OC)c2)C(C)C)cc1OC (racemic) [Verapamil, (RS)-2-(3,4-dimethoxyphenyl)-5-{[2-(3,4-dimethoxyphenyl)ethyl]-(methyl)amino}-2-prop-2-ylpentanenitrile]	1.4 µg/mL	–	–	–
36.5 µg/mL	404 µg/mL	42 µg/mL	COc1cccc2c1C(=O)c1c(O)c3c(c(O)c1C2=O)C[C@@](O)(C(=O)CO)C[C@@H]3O[C@H]1C[C@H](N)[C@H](O)[C@H](C)O1 [Doxorubicin, doxorubicin]	–	50%	> 70%	about 70%
